Where two headings read alike, the source gives them in different places. Starred links: 1 amine or outer side, 2 acyl side, 3 side chain; linkers in the order of their positions; H or OH if unused. Non-standard residues stand in square brackets, D forms with d. Groups on a side chain read outwards from the residue. No end group written: not given here. *: point of attachment. C20 diacid = O=C(O)CCCCCCCCCCCCCCCCCCC(=O)*; C18 diacid = O=C(O)CCCCCCCCCCCCCCCCC(=O)*; αMePhe(2-F) = C[C@](N)(Cc1ccccc1F)C(=O)O; γGlu = O=C(O)[C@H](CCC(=O)[*:2])N[*:1]; αMe4Pal = C[C@](N)(Cc1ccncc1)C(=O)O; αMeY = C[C@](N)(Cc1ccc(O)cc1)C(=O)O; αMeF = C[C@](N)(Cc1ccccc1)C(=O)O; 4Pal = N[C@@H](Cc1ccncc1)C(=O)O; Aad = N[C@@H](CCCC(=O)O)C(=O)O; αMeL = CC(C)C[C@](C)(N)C(=O)O; αMeS = C[C@](N)(CO)C(=O)O; Orn = NCCC[C@H](N)C(=O)O; AEEA = NCCOCCOCC(=O)O; Aib = CC(C)(N)C(=O)O
Experiments:
Assay type in all cases: cell-based
[1] = molecular target: T1, hGLP-1R (Homo sapiens, UniProt P43220); test: Functional cAMP activity in the presence of 1% HSA; settings: read-out: cAMP Rel EC50, hGLP-1R
[2] = molecular target: human GcgR (Homo sapiens, UniProt P47871); test: Functional cAMP activity in the presence of 1% HSA; settings: read-out: cAMP Rel EC50, hGcgR
[3] = molecular target: T2, hGIPR (Homo sapiens, UniProt P48546); test: Functional cAMP activity in the presence of 1% HSA; settings: read-out: cAMP Rel EC50, hGIPR
T2 sequence (P48546 22-466): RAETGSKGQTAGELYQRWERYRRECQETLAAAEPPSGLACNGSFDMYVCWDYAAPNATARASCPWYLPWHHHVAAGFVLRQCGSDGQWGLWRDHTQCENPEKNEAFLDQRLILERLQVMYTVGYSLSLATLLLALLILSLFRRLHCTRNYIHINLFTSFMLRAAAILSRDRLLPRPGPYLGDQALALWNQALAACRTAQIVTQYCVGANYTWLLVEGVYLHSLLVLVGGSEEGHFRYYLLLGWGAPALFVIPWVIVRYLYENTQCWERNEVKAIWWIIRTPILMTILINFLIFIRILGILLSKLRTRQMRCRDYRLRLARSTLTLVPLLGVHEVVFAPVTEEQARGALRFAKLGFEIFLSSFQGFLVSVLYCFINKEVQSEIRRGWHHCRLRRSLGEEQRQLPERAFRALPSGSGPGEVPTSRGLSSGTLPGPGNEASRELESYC

[4] = molecular target: T1, hGLP-1R; test: Functional cAMP activation in the presence of 0.1% casein (no HSA); settings: read-out: Relative cAMP EC50, hGLP-1R;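 as to Relative cAMP EC50, hGIPR: intracellular cAMP rise after 30 min at 37 °C read by HTRF against a standard curve, scaled between buffer alone (0%) and top control ligand concentration (100%), four-parameter fit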;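 as to Relative cAMP EC50, hGLP-1R: intracellular cAMP rise after 30 min at 37 °C read by HTRF, normalized between buffer only (0%) and maximal control ligand (100%), four-parameter variable-slope fit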;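 as to Relative cAMP EC50, hGcgR: intracellular cAMP rise after 30 min at 37 °C, read by HTRF against a cAMP standard curve, scaled from buffer only (0%) to maximal control ligand response (100%)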
[5] = molecular target: T2, hGIPR; test: as above; settings: read-out: Relative cAMP EC50, hGIPR
[6] = molecular target: hGcgR (Homo sapiens, UniProt P47871); test: as above; settings: read-out: Relative cAMP EC50, hGcgR;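 also: intracellular cAMP rise after 30 min at 37 °C, read by HTRF against a cAMP standard curve, scaled from buffer only (0%) to maximal control ligand response (100%)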
[7] = in the presence of 0.1% casein (no HSA), geometric mean
[8] = HEK-293 clonal cell line, 1% HSA, geometric mean of relative EC50
[9] = in the presence of 0.1% casein (no HSA), geometric mean of relative EC50
[10] = 0.1% casein, no HSA, geometric mean

Chain of hGcgR (P47871 26-477): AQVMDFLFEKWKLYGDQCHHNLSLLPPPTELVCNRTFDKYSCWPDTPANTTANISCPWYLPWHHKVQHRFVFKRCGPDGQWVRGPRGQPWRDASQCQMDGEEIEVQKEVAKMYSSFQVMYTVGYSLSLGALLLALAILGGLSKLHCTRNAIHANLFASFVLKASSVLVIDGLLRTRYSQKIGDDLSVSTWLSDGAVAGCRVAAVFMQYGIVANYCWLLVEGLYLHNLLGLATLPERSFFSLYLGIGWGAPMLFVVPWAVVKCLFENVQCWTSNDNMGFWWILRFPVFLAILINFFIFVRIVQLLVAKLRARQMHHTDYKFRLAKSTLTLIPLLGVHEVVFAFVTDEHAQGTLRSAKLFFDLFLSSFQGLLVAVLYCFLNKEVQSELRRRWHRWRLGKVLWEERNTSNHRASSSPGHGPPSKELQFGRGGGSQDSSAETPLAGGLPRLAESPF
Chain of human GcgR (P47871 26-477): as above
T1 sequence (P43220 24-463): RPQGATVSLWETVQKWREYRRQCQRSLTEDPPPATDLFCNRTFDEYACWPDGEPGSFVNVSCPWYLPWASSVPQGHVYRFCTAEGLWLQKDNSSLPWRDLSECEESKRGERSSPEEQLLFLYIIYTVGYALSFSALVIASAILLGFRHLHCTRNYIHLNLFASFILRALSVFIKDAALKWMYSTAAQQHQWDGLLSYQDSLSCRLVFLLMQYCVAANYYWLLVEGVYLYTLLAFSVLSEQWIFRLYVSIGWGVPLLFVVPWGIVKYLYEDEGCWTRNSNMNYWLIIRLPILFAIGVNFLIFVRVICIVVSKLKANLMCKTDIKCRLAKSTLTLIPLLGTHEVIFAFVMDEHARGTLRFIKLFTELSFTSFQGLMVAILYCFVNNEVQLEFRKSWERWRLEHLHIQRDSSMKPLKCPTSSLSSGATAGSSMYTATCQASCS

Row | EC50 [1] [nM] | EC50 [2] [nM] | EC50 [3] [nM] | EC50 [4] [nM] | EC50 [5] [nM] | EC50 [6] [nM] | Substance | also measured
1 | 272 | 2470 | 57.5 | – | – | – | Y[Aib]QGT[αMePhe(2-F)]TSDYSILLDAQAAK([AEEA-γGlu-C20 diacid])EFIEYLIEGGPSSGEPPPSEG-NH2 [Example 351] | EC50 [4, 7]: 0.679 nM; EC50 [5, 7]: 0.243 nM; EC50 [6, 7]: 12.1 nM
2 | 175 | 1440 | 23.8 | – | – | – | Y[Aib]QGT[αMePhe(2-F)]TSDYSKILDKIAQK([AEEA-γGlu-C20 diacid])AFIQYLIEGGPSSGEPPPSEG-NH2 [Example 354] | EC50 [4, 7]: 1.21 nM; EC50 [5, 7]: 0.134 nM; EC50 [6, 7]: 7.91 nM
3 | 172 | 659 | 10.9 | – | – | – | Y[Aib]QGT[αMePhe(2-F)]TSDYSKLLDKIAQK([AEEA-γGlu-C20 diacid])AFIQYLIEGGPSSGEPPPSEG-NH2 [Example 338] | EC50 [4, 7]: 1.22 nM; EC50 [5, 7]: 0.0733 nM; EC50 [6, 7]: 4.02 nM
4 | 34.3 | 626 | 0.601 | 0.309 | 0.00649 | 5.91 | Y[Aib]QGT[αMePhe(2-F)]TSD[4Pal]SI[αMeL]LD[Orn]K([AEEA-γGlu-C18 diacid])AQ[αMe4Pal]EFI[dE][αMeY]LIEGGPSSGEPPPSGS-NH2 [Example 644] | –
5 | 26.7 | 298 | 1.45 | 0.277 | 0.0116 | 2.45 | Y[Aib]QGT[αMePhe(2-F)]TSD[4Pal]SI[αMeL]LD[Orn]K([AEEA-γGlu-C18 diacid])AQ[αMe4Pal][Orn]FI[dE][αMeY]LIEGGPSSGDPPPEAE-NH2 [Example 728] | –
6 | 30.8 | 310 | 1.81 | 0.236 | 0.00959 | 2.32 | Y[Aib]QGT[αMePhe(2-F)]TSD[4Pal]SI[αMeL]LD[Orn]K([AEEA-γGlu-C18 diacid])AQ[αMe4Pal][Orn]FI[dE][αMeY]LIEGGPSSGEPPPEGGGE-NH2 [Example 757] | –
7 | 21.6 | 188 | 1.02 | 0.255 | 0.0123 | 3.22 | Y[Aib]QGT[αMePhe(2-F)]TSD[4Pal]SI[αMeL]LD[Orn]K([AEEA-γGlu-C18 diacid])AQ[αMe4Pal][Orn]FI[dE][αMeY]LIEGGPSSGEPPPEGTE-NH2 [Example 679] | –
8 | 1.14 | 68.4 | 0.0152 | – | – | – | Y[Aib]QGT[αMePhe(2-F)]TSD[4Pal]SI[αMeL]LD[Orn]QAQ[αMe4Pal][Orn]FI[dE][αMeY]LIEGGPSSGEPPPETE-NH2 [Example 1230] | EC50 [4, 10]: 1.19 nM; EC50 [5, 10]: 0.022 nM; EC50 [6, 10]: 64.7 nM
9 | 53.1 | 474 | 5.69 | 0.786 | 0.17 | 5.01 | Y[Aib]QGT[αMePhe(2-F)]TSD[4Pal][αMeS]ILLD[Orn]K([γGlu-γGlu-C18 diacid])AQ[Aib][Orn]FI[dE]YLIEGGPSSGEPPPEGEEE-NH2 [Example 606] | –
10 | 56.2 | 353 | 6.69 | 0.795 | 0.132 | 5.49 | Y[Aib]QGT[αMePhe(2-F)]TSD[4Pal][αMeS]ILLD[Orn]K([γGlu-γGlu-C18 diacid])AQ[Aib][Orn]FI[dE]YLIEGGPSSGEPPPEGGEE-NH2 [Example 605] | –

More lines, now with the values behind:

Row | Substance | EC50 [1] [nM] | EC50 [2] [nM] | EC50 [3] [nM] | EC50 [4] [nM] | EC50 [5] [nM] | EC50 [6] [nM] | also measured
11 | Y[Aib]QGT[αMeF]TSD[4Pal][αMeS]I[αMeL]LD[Orn]K([γGlu-γGlu-C18 diacid])AQ[αMe4Pal]EFI[dE][αMeY]LIEGGPSSGAPPPSGGGE-NH2 [Example 1174] | 60.2 | 347 | 0.707 | – | – | – | EC50 [4, 7]: 0.454 nM; EC50 [5, 7]: 0.00896 nM; EC50 [6, 7]: 2.58 nM
12 | Y[Aib]QGT[αMePhe(2-F)]TSDYSILLDKK([γGlu-γGlu-C18 diacid])AQ[Aib]AFIEYLEEGGPSSGAPPPSGE-NH2 [Example 435] | 33.6 | 334 | 10.3 | 0.311 | 0.0239 | 3.01 | –
13 | Y[Aib]QGT[αMePhe(2-F)]TSDYSILLDKQAAK([AEEA-γGlu-C20 diacid])EFIEYLIEGGPSSGAPPPSEG-NH2 [Example 340] | 246 | 647 | 60.4 | – | – | – | EC50 [4, 7]: 0.648 nM; EC50 [5, 7]: 0.189 nM; EC50 [6, 7]: 2.02 nM
14 | Y[Aib]QGT[αMePhe(2-F)]TSD[4Pal]SILLDKK([γGlu-γGlu-C18 diacid])AQ[Aib]AFIEWLQEGGPSSGAPPPSGTEE-NH2 [Example 578] | 54.7 | 781 | 3.73 | 0.233 | 0.0208 | 6.26 | –
15 | Y[Aib]QGT[αMePhe(2-F)]TSD[4Pal]SILLDKK([γGlu-γGlu-C18 diacid])AQ[Aib]AFIEYLQEGGPSSGAPPPSGTEE-NH2 [Example 580] | 55.3 | 922 | 6.29 | 0.615 | 0.0426 | 7.27 | –
16 | Y[Aib]QGT[αMePhe(2-F)]TSD[4Pal]SILLDKK([γGlu-γGlu-C18 diacid])AQ[Aib]AFIEYL[Aad]EGGPSSGAPPPSGTGE-NH2 [Example 661] | 50.9 | 160 | 4.62 | 1.13 | 0.0665 | 1.78 | –
17 | Y[Aib]QGT[αMePhe(2-F)]TSD[4Pal]SI[αMeL]LD[Orn]K([AEEA-AEEA-γGlu-C18 diacid])AQ[αMe4Pal]EFI[dE][αMeY]LLEGGPSSGAPPPSGE-NH2 [Example 613] | 81.6 | 1410 | 0.791 | 0.698 | 0.00925 | 20.4 | –
18 | Y[Aib]QGT[αMePhe(2-F)]TSD[4Pal]SI[αMeL]LD[Orn]K([AEEA-γGlu-C18 diacid])AQ[αMe4Pal]EFI[dE][αMeY]LIEGGPSSGAPPPSGE-NH2 [Example 614] | 33.2 | 724 | 0.597 | 0.251 | 0.0065 | 6.36 | –
19 | Y[Aib]QGT[αMePhe(2-F)]TSD[4Pal]SI[αMeL]LD[Orn]K([AEEA-γGlu-C18 diacid])AQ[αMe4Pal][Orn]FI[dE][αMeY]LIEGGPSSGAPPPEGGGE-NH2 [Example 758] | 31.3 | 388 | 1.59 | 0.195 | 0.0212 | 3.99 | –
20 | Y[Aib]QGT[αMePhe(2-F)]TSD[4Pal]SI[αMeL]LD[Orn]K([AEEA-γGlu-C18 diacid])AQ[αMe4Pal][Orn]FI[dE][αMeY]LIEGGPSSGDPPPESE-NH2 [Example 729] | 27 | 276 | 1.43 | 0.288 | 0.0113 | 2.11 | –
21 | Y[Aib]QGT[αMePhe(2-F)]TSD[4Pal]SI[αMeL]LD[Orn]K([AEEA-γGlu-C18 diacid])AQ[αMe4Pal][Orn]FI[dE][αMeY]LIEGGPSSGEPPPEGEG[dE]-NH2 [Example 692] | – | – | – | – | – | – | EC50 [1, 8]: 25.2 nM; EC50 [2, 8]: 380 nM; EC50 [3, 8]: 1.25 nM; EC50 [4, 9]: 0.252 nM; EC50 [5, 9]: 0.0106 nM; EC50 [6, 9]: 2.14 nM
22 | Y[Aib]QGT[αMePhe(2-F)]TSD[4Pal]SI[αMeL]LD[Orn]K([AEEA-γGlu-C18 diacid])AQ[αMe4Pal][Orn]FI[dE][αMeY]LIEGGPSSGEPPPEGT[dE]-NH2 [Example 691] | 28.9 | 308 | 1.17 | 0.26 | 0.0117 | 2.46 | –
23 | Y[Aib]QGT[αMePhe(2-F)]TSD[4Pal][αMeS]ILLD[Orn]K([γGlu-γGlu-C18 diacid])AQ[Aib][Orn]FI[dE]YLIEGGPSSGEPPPSETE-NH2 [Example 555] | – | – | – | – | – | – | EC50 [1, 8]: 42 nM; EC50 [2, 8]: 274 nM; EC50 [3, 8]: 5.31 nM; EC50 [4, 9]: 0.445 nM; EC50 [5, 9]: 0.0601 nM; EC50 [6, 9]: 3.56 nM
